# Assay results as given in patent US6737383B1, “Herbicidal oxadiazolidines” (priority 1999, dated 2004).
# How the values were obtained:
# corn = assay: Test B pre/postemergence corn; type: in vivo, Zea mays; details: for Plant response rating, Corn: scale of 0 to 10 where 0 is no effect and 10 is complete control
# Summary of the method: (§1)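 Response is a visual 0-to-10 score relative to untreated plants, where 0 means no effect and 10 means complete control, taken twelve to sixteen days after application. Treatments went onto soil at planting and onto foliage of 1- to 4-leaf plants, using a surfactant-containing non-phytotoxic solvent.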
# rape = assay: Test B pre/postemergence rape; type: in vivo, Brassica napus; details: for Plant response rating, Rape: scale of 0 to 10 where 0 is no effect and 10 is complete control
# Summary of the method: as §1
# crabgrass = assay: Test B pre/postemergence crabgrass; type: in vivo, Digitaria sanguinalis; details: for Plant response rating, Crabgrass: scale of 0 to 10 where 0 is no effect and 10 is complete control
# Summary of the method: as §1
# blackgrass = assay: Test B pre/postemergence blackgrass; type: in vivo, Alopecurus myosuroides; details: for Plant response rating, Blackgrass: scale of 0 to 10 where 0 is no effect and 10 is complete control
# Summary of the method: as §1
# surinam grass = assay: Test B pre/postemergence surinam grass; type: in vivo, Brachiaria decumbens; details: for Plant response rating, B. signalgrass: scale of 0 to 10 where 0 is no effect and 10 is complete control
# Summary of the method: as §1
# bedstraw = assay: Test B pre/postemergence bedstraw; type: in vivo, Galium aparine; details: Preemergence
# Summary of the method: as §1
# velvetleaf = assay: Test B pre/postemergence velvetleaf; type: in vivo, Abutilon theophrasti; details: for Velvetleaf plant response rating: Rate 125 g/ha, scale 0 to 10, 0 is no effect, 10 is complete control; for Plant response rating, Velvetleaf: scale of 0 to 10 where 0 is no effect and 10 is complete control
# Summary of the method: as §1
# sugar beet = assay: Test B pre/postemergence sugar beet; type: in vivo, Beta vulgaris; details: for Plant response rating, Sugarbeets: scale of 0 to 10 where 0 is no effect and 10 is complete control
# Summary of the method: as §1
# wild oat = assay: Test B pre/postemergence wild oat; type: in vivo, Avena fatua; details: for Plant response rating, Wild oats: scale of 0 to 10 where 0 is no effect and 10 is complete control
# Summary of the method: as §1
# wheat = assay: Test B pre/postemergence wheat; type: in vivo, Triticum aestivum; details: for Plant response rating, Wheat: scale of 0 to 10 where 0 is no effect and 10 is complete control
# Summary of the method: as §1
# purple nutsedge = assay: Test B pre/postemergence purple nutsedge; type: in vivo, Cyperus rotundus
# Summary of the method: as §1
# giant foxtail = assay: Test B pre/postemergence giant foxtail; type: in vivo, Setaria faberii; details: for Plant response rating, Giant foxtail: scale of 0 to 10 where 0 is no effect and 10 is complete control
# Summary of the method: as §1
# morningglory = assay: Test B pre/postemergence morningglory; type: in vivo, Ipomoea hederacea; details: for Plant response rating, Morningglory: scale of 0 to 10 where 0 is no effect and 10 is complete control
# Summary of the method: as §1
# cocklebur = assay: Test B pre/postemergence cocklebur; type: in vivo, Xanthium strumarium; details: for Plant response rating, Cocklebur: scale of 0 to 10 where 0 is no effect and 10 is complete control
# Summary of the method: as §1
# pigweed = assay: Test B pre/postemergence pigweed; type: in vivo, Amaranthus retroflexus; details: for Plant response rating, Redroot pigweed: scale of 0 to 10 where 0 is no effect and 10 is complete control
# Summary of the method: as §1
# soybean = assay: Test B pre/postemergence soybean; type: in vivo, Glycine max; details: for Plant response rating, Soybean: scale of 0 to 10 where 0 is no effect and 10 is complete control
# Summary of the method: as §1
# [1] = Postemergence, Rate 31 g/ha, visual rating, scale 0 to 10 (0 no effect, 10 complete control)
# [2] = Postemergence, Rate 62 g/ha, scale of 0 to 10, 0 is no effect, 10 is complete control
# [3] = Postemergence, Rate 125 g/ha, scale 0 to 10, 0 is no effect, 10 is complete control
# [4] = Preemergence, Rate 31 g/ha, visual rating, scale 0 to 10 (0 no effect, 10 complete control)
# [5] = Preemergence, Rate 125 g/ha, scale 0 to 10, 0 is no effect, 10 is complete control
structure (smiles),measurement,setting,value
CC(C)N(C(=O)n1oc(=O)n(C[Si](C)(C)C)c1=O)c1ccc(F)cc1F [Compound 518],Corn plant response rating,corn; [1],0
same,Corn plant response rating,corn; [2],0
same,Corn plant response rating,corn; [3],0
same,Corn plant response rating,corn; [4],0
same,"Plant response rating, Corn","corn; Preemergence, Rate 62 g/ha",0
same,Corn plant response rating,corn; [5],0
same,Corn plant response rating (0 to 10 scale),"corn; Preemergence, Rate 250 g/ha",0
same,"Plant response rating, Corn","corn; Rate 250 g/ha, Postemergence",0
same,Rape plant response rating,rape; [1],0
same,Rape plant response rating,rape; [2],0
same,Rape plant response rating,rape; [3],7
same,"Plant response rating, Rape","rape; Preemergence, Rate 62 g/ha",0
same,Rape plant response rating,rape; [5],0
same,Rape plant response rating (0 to 10 scale),"rape; Preemergence, Rate 250 g/ha",0
same,"Plant response rating, Rape","rape; Rate 250 g/ha, Postemergence",7
same,Crabgrass plant response rating,crabgrass; [1],0
same,Crabgrass plant response rating,crabgrass; [2],0
same,Crabgrass plant response rating,crabgrass; [3],2
same,Crabgrass plant response rating,crabgrass; [4],0
same,"Plant response rating, Crabgrass","crabgrass; Preemergence, Rate 62 g/ha",0
same,Crabgrass plant response rating,crabgrass; [5],0
same,Crabgrass plant response rating (0 to 10 scale),"crabgrass; Preemergence, Rate 250 g/ha",0
same,"Plant response rating, Crabgrass","crabgrass; Rate 250 g/ha, Postemergence",10
same,Blackgrass plant response rating,blackgrass; [1],4
same,Blackgrass plant response rating,blackgrass; [2],4
same,Blackgrass plant response rating,blackgrass; [3],7
same,Blackgrass plant response rating,blackgrass; [4],4
same,"Plant response rating, Blackgrass","blackgrass; Preemergence, Rate 62 g/ha",7
same,Blackgrass plant response rating,blackgrass; [5],8
same,Blackgrass plant response rating (0 to 10 scale),"blackgrass; Preemergence, Rate 250 g/ha",7
same,"Plant response rating, Blackgrass","blackgrass; Rate 250 g/ha, Postemergence",7
same,B. signalgrass plant response rating,surinam grass; [1],3
same,B. signalgrass plant response rating,surinam grass; [3],7
same,B. signalgrass plant response rating,surinam grass; [4],0
same,"Plant response rating, B. signalgrass","surinam grass; Preemergence, Rate 62 g/ha",0
same,B. signalgrass plant response rating,surinam grass; [5],3
same,"B. signalgrass plant response rating (0 to 10 scale, 0 is no effect, 10 is complete control)","surinam grass; Preemergence, Rate 250 g/ha",10
same,"Plant response rating, B. signalgrass","surinam grass; Rate 250 g/ha, Postemergence",7
same,Bedstraw plant response rating,"bedstraw; Rate 31 g/ha, visual rating, scale 0 to 10 (0 no effect, 10 complete control)",0
same,"Plant response rating, Bedstraw","bedstraw; Rate 62 g/ha, scale of 0 to 10 where 0 is no effect and 10 is complete control",0
same,Bedstraw plant response rating,"bedstraw; Rate 125 g/ha, scale 0 to 10, 0 is no effect, 10 is complete control",0
same,Bedstraw plant response rating (0 to 10 scale),bedstraw; Rate 250 g/ha,0
same,Velvetleaf plant response rating,velvetleaf; Postemergence,2
same,"Plant response rating, Velvetleaf","velvetleaf; Preemergence, Rate 62 g/ha",0
same,Velvetleaf plant response rating,velvetleaf; Preemergence,0
same,Velvetleaf plant response rating (0 to 10 scale),"velvetleaf; Preemergence, Rate 250 g/ha",0
same,"Plant response rating, Velvetleaf","velvetleaf; Rate 250 g/ha, Postemergence",4
same,Sugarbeets plant response rating,sugar beet; [1],0
same,Sugarbeets plant response rating,sugar beet; [2],0
same,Sugarbeets plant response rating,sugar beet; [3],3
same,"Plant response rating, Sugarbeets","sugar beet; Preemergence, Rate 62 g/ha",0
same,Sugarbeets plant response rating,sugar beet; [5],2
same,Sugarbeets plant response rating (0 to 10 scale),"sugar beet; Preemergence, Rate 250 g/ha",2
same,"Plant response rating, Sugarbeets","sugar beet; Rate 250 g/ha, Postemergence",3
same,Wild oats plant response rating,wild oat; [1],0
same,Wild oats plant response rating,wild oat; [2],0
same,Wild oats plant response rating,wild oat; [3],2
same,"Plant response rating, Wild oats","wild oat; Preemergence, Rate 62 g/ha",4
same,Wild oats plant response rating,wild oat; [5],6
same,Wild oats plant response rating (0 to 10 scale),"wild oat; Preemergence, Rate 250 g/ha",8
same,"Plant response rating, Wild oats","wild oat; Rate 250 g/ha, Postemergence",2
same,Wheat plant response rating,wheat; [1],0
same,Wheat plant response rating,wheat; [2],0
same,Wheat plant response rating,wheat; [3],0
same,"Plant response rating, Wheat","wheat; Preemergence, Rate 62 g/ha",0
same,Wheat plant response rating,wheat; [5],2
same,Wheat plant response rating (0 to 10 scale),"wheat; Preemergence, Rate 250 g/ha",3
same,"Plant response rating, Wheat","wheat; Rate 250 g/ha, Postemergence",0
same,Nutsedge plant response rating,purple nutsedge; [1],0
same,Nutsedge plant response rating,purple nutsedge; [2],0
same,Nutsedge plant response rating,purple nutsedge; [3],0
same,"Plant response rating, Nutsedge","purple nutsedge; Preemergence, Rate 62 g/ha, scale of 0 to 10 where 0 is no effect and 10 is complete control",0
same,Nutsedge plant response rating,purple nutsedge; [5],0
same,Nutsedge plant response rating (0 to 10 scale),"purple nutsedge; Preemergence, Rate 250 g/ha",0
same,Giant foxtail plant response rating,giant foxtail; [1],0
same,Giant foxtail plant response rating,giant foxtail; [2],0
same,Giant foxtail plant response rating,giant foxtail; [3],0
same,Giant foxtail plant response rating,giant foxtail; [4],0
same,"Plant response rating, Giant foxtail","giant foxtail; Preemergence, Rate 62 g/ha",0
same,Giant foxtail plant response rating,giant foxtail; [5],0
same,Giant foxtail plant response rating (0 to 10 scale),"giant foxtail; Preemergence, Rate 250 g/ha",0
same,"Plant response rating, Giant foxtail","giant foxtail; Rate 250 g/ha, Postemergence",2
same,Morningglory plant response rating,morningglory; [1],5
same,Morningglory plant response rating,morningglory; [2],5
same,Morningglory plant response rating,morningglory; [3],5
same,"Plant response rating, Morningglory","morningglory; Preemergence, Rate 62 g/ha",0
same,Morningglory plant response rating,morningglory; [5],0
same,Morningglory plant response rating (0 to 10 scale),"morningglory; Preemergence, Rate 250 g/ha",0
same,"Plant response rating, Morningglory","morningglory; Rate 250 g/ha, Postemergence",8
same,Cocklebur plant response rating,cocklebur; [1],0
same,Cocklebur plant response rating,cocklebur; [2],0
same,Cocklebur plant response rating,cocklebur; [3],0
same,Cocklebur plant response rating,cocklebur; [4],0
same,"Plant response rating, Cocklebur","cocklebur; Preemergence, Rate 62 g/ha",0
same,Cocklebur plant response rating,cocklebur; [5],0
same,Cocklebur plant response rating (0 to 10 scale),"cocklebur; Preemergence, Rate 250 g/ha",0
same,"Plant response rating, Cocklebur","cocklebur; Rate 250 g/ha, Postemergence",0
same,Redroot pigweed plant response rating,pigweed; [1],0
same,Redroot pigweed plant response rating,pigweed; [2],0
same,Redroot pigweed plant response rating,pigweed; [3],0
same,"Plant response rating, Redroot pigweed","pigweed; Preemergence, Rate 62 g/ha",2
same,Redroot pigweed plant response rating,pigweed; [5],2
same,Redroot pigweed plant response rating (0 to 10 scale),"pigweed; Preemergence, Rate 250 g/ha",4
same,"Plant response rating, Redroot pigweed","pigweed; Rate 250 g/ha, Postemergence",0
same,Soybean plant response rating,soybean; [1],4
same,Soybean plant response rating,soybean; [2],4
same,Soybean plant response rating,soybean; [3],5
same,"Plant response rating, Soybean","soybean; Preemergence, Rate 62 g/ha",0
same,Soybean plant response rating,soybean; [5],0
same,Soybean plant response rating (0 to 10 scale),"soybean; Preemergence, Rate 250 g/ha",0
same,"Plant response rating, Soybean","soybean; Rate 250 g/ha, Postemergence",5
